Laboratory results taken from US7238830B2, “N-alkylaspartyl dipeptide ester compounds” (Ajinomoto Co., Inc., priority 1998, dated 2007).

Assay: Sensory evaluation of sweetness (sweetening potency) relative to sucrose
Settings: for Sweetness (sweetening potency): sensory evaluation; for sweetness potency: values compared to sweetening potency of a 4% aqueous solution of sucrose
Source text: For example, the sweetness of N-[N-[3-(3-hydroxy-4-methoxyphenyl)-3-methylbutyl]-L-α-aspartyl]-L-phenylalanine 1-methyl ester was approximately 70000 times that of sugar, the sweetness of N-[N-[3-(3-methyl-4 hydroxyphenyl)-3-methylbutyl]-L-α-aspartyl]-L-phenylalanine 1-methyl ester was approximately 70000 times that of sugar, the sweetness of N-[N-[3-(3-hydroxy-4-methylphenyl)-3-methylbutyl]-L-α- aspartyl]-L-phenylalanine 1-methyl ester was approximately 60000 times that of sugar, and the sweetness of N-[N-((RS)-3-(3 hydroxy-4-methoxyphenyl) butyl]-L-α-aspartyl]-L-phenylalanine 1-methyl ester was approximately 50000 times that of sugar. […] Sensory evaluations can be performed as described in, for example, B. T. Carr, S. D. Pecore, K. M. Gibes and G. E. Dubois, “Sensory Methods for Sweetner Evaluation” in Flavor Measurement, edited by C. T. Ho and C. H. Manley, Marcel Decker, Inc. (1992).

Structure (SMILES)	Sweetness (sweetening potency)	sweetness potency	Sweetness (sweetening potency) (listed as Example 17)
COC(=O)[C@H](Cc1ccccc1)NC(=O)[C@H](CC(=O)O)NCCC(C)(C)c1ccc(OC)c(O)c1	approximately 70000 times the sweetness of sugar	–	–
COC(=O)[C@H](Cc1ccccc1)NC(=O)[C@H](CC(=O)O)NCCC(C)c1ccc(OC)cc1 (mixture of isomers) [Compound 1, N-[N-[(RS)-3-(4-methoxyphenyl)butyl]-L-α-aspartyl]-L-phenylalanine 1-methyl ester]	16000 times the sweetness of sugar	16000	–
COC(=O)[C@H](Cc1ccccc1)NC(=O)[C@H](CC(=O)O)NCCC(C)c1cccc(O)c1 (mixture of isomers) [Compound 2, N-[N-[(RS)-3-(3-hydroxyphenyl)butyl]-L-α-aspartyl]-L-phenylalanine 1 methyl ester]	12000 times the sweetness of sugar	12000	–
COC(=O)[C@H](Cc1ccccc1)NC(=O)[C@H](CC(=O)O)NCCC(C)c1ccc(O)c(OC)c1 (mixture of isomers) [Compound 3, N-[N-[(RS)-3-(3-methoxy-4-hydroxyphenyl)butyl]-L-α-aspartyl]-L-phenylalanine 1-methyl ester]	30000 times the sweetness of sugar	30000	–
COC(=O)[C@H](Cc1ccccc1)NC(=O)[C@H](CC(=O)O)NCCC(C)c1ccc(OC)c(O)c1 (mixture of isomers) [Compound 4, N-[N-[(RS)-3-(3-hydroxy-4-methoxyphenyl)butyl]-L-α-aspartyl]-L-phenylalanine 1-methyl ester]	approximately 50000 times the sweetness of sugar	50000	50000 times the sweetness of sugar
COC(=O)[C@H](Cc1ccc(O)cc1)NC(=O)[C@H](CC(=O)O)NCCC(C)c1ccc(O)c(OC)c1 (mixture of isomers) [Compound 5, N-[N-[(RS)-3-(3-methoxy-4-hydroxyphenyl)butyl]-L-α-aspartyl]-L-tyrosine 1-methyl ester]	25000 times the sweetness of sugar	25000	–
COC(=O)[C@H](CC1CCCCC1)NC(=O)[C@H](CC(=O)O)NCCC(C)c1ccc(OC)c(O)c1 (mixture of isomers) [Compound 6]	40000 times the sweetness of sugar	40000	–
COC(=O)[C@H](Cc1ccccc1)NC(=O)[C@H](CC(=O)O)NCCC(C)c1ccc(O)c(C)c1 (mixture of isomers) [Compound 11, N-[N-[(RS)-3-(3-methyl-4-hydroxyphenyl)butyl]-L-α-aspartyl]-L-phenylalanine 1-methyl ester]	50000 times the sweetness of sugar	50000	–
COC(=O)[C@H](Cc1ccccc1)NC(=O)[C@H](CC(=O)O)NCC(C)Cc1ccc(OC)c(O)c1 (mixture of isomers) [Compound 12, N-[N-[3-(3-hydroxy-4-methoxyphenyl)-(RS)-2-methylpropyl)-L-α-aspartyl)-L-phenylalanine 1-methyl ester]	5000 times the sweetness of sugar	5000	–
COC(=O)[C@H](Cc1ccccc1)NC(=O)[C@H](CC(=O)O)NCCC(C)(C)c1ccc(OC)cc1 [Compound 7, N-[N-[3-(4-methoxyphenyl)-3-methylbutyl]-L-α-aspartyl)-L-phenylalanine 1-methyl ester]	25000 times the sweetness of sugar	25000	–
COC(=O)[C@H](Cc1ccccc1)NC(=O)[C@H](CC(=O)O)NCCC(C)(C)c1ccccc1O [Compound 13, N-[N-[3-(2-hydroxyphenyl)-3-methylbutyl]-L-α-aspartyl]-L-phenylalanine 1-methyl ester]	8000 times the sweetness of sugar	8000	–
COC(=O)[C@H](Cc1ccccc1)NC(=O)[C@H](CC(=O)O)NCCC(C)(C)c1ccc(OC)cc1O [Compound 14, N-[N-[3-(2-hydroxy-4-methoxyphenyl)-3-methylbutyl]-L-α-aspartyl]-L-phenylalanine 1-methyl ester]	20000 times the sweetness of sugar	20000	–
